Test system: 422866-222-R5-J1-PDC spheroid viability
Experiment: Anticancer human tumor 422866-222-R5-J1-PDC patient-derived pancreatic adenocarcinoma cell line growth inhibition [CLK]
Conditions: spheroids with HUVEC and MSC; for IC50: curve of first compound; for viability, T/C: stronger effect = lower value
How it was run: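 Multi-cell-type spheroids combined patient-derived tumor cells with HUVEC endothelial cells and human mesenchymal stem cells. Paired agents were dosed in half-log steps down from about clinical Cmax, or from 10 microM where Cmax was unknown.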

[1] = second compound 0.0316 µM, first compound 0.0316 µM
[2] = second compound 0.0316 µM, first compound 0.1 µM
[3] = second compound 0.0316 µM, first compound 0.316 µM
[4] = second compound 0.0316 µM, first compound 1 µM
[5] = second compound 0.0316 µM, first compound 3.16 µM
[6] = second compound 0.0316 µM, first compound 10 µM
[7] = second compound 0.1 µM, first compound 0.0316 µM
[8] = second compound 0.1 µM, first compound 0.1 µM
[9] = second compound 0.1 µM, first compound 0.316 µM
[10] = second compound 0.1 µM, first compound 1 µM
[11] = second compound 0.1 µM, first compound 3.16 µM
[12] = second compound 0.1 µM, first compound 10 µM
[13] = second compound 0.316 µM, first compound 0.0316 µM
[14] = second compound 0.316 µM, first compound 0.1 µM
[15] = second compound 0.316 µM, first compound 0.316 µM
[16] = second compound 0.316 µM, first compound 1 µM
[17] = second compound 0.316 µM, first compound 3.16 µM
[18] = second compound 0.316 µM, first compound 10 µM
[19] = second compound 1 µM, first compound 0.0316 µM
[20] = second compound 1 µM, first compound 0.1 µM
[21] = second compound 1 µM, first compound 0.316 µM
[22] = second compound 1 µM, first compound 1 µM
[23] = second compound 1 µM, first compound 3.16 µM
[24] = second compound 1 µM, first compound 10 µM
[25] = second compound 3.16 µM, first compound 0.0316 µM
[26] = second compound 3.16 µM, first compound 0.1 µM
[27] = second compound 3.16 µM, first compound 0.316 µM
[28] = second compound 3.16 µM, first compound 1 µM
[29] = second compound 3.16 µM, first compound 3.16 µM
[30] = second compound 3.16 µM, first compound 10 µM
[31] = second compound 10 µM, first compound 0.0316 µM
[32] = second compound 10 µM, first compound 0.1 µM
[33] = second compound 10 µM, first compound 0.316 µM
[34] = second compound 10 µM, first compound 1 µM
[35] = second compound 10 µM, first compound 3.16 µM
[36] = second compound 10 µM, first compound 10 µM
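Note: spheroids exposed to agents for seven days before readout.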

`CC1COCCN1c1cc(C2(S(C)(=N)=O)CC2)nc(-c2ccnc3[nH]ccc23)n1` (centres undefined) + CNC(=O)c1ccc(Nc2nc(OC3CCCC3)c3c(-c4ccc5nc(C)oc5c4)c[nH]c3n2)c(OC)c1 was tested, and the IC50 (second compound 0.0316 µM) was 7.15 µM, the IC50 (second compound 0.1 µM) was greater than 10 µM and the IC50 (second compound 0.316 µM) was 2.56 µM. The IC50 (second compound 1 µM) was 1.56 µM, the IC50 (second compound 3.16 µM) was 0.973 µM and the IC50 (second compound 10 µM) was 0.63 µM. It also gave a viability, T/C [1] of 108%, a viability, T/C [2] of 137% and a viability, T/C [3] of 104%. It also gave a viability, T/C [4] of 102%, a viability, T/C [5] of 59.6% and a viability, T/C [6] of 46.2%. The viability, T/C [7] was 106%, the viability, T/C [8] was 98.4% and the viability, T/C [9] was 88%. It also gave a viability, T/C [10] of 84.6%, a viability, T/C [11] of 56.9% and a viability, T/C [12] of 60.6%. For the same compound, the viability, T/C [13] was 79.8%, the viability, T/C [14] was 71.6% and the viability, T/C [15] was 69.3%. For the same compound, the viability, T/C [16] was 58%, the viability, T/C [17] was 43.5% and the viability, T/C [18] was 50.5%. It also gave a viability, T/C [19] of 61.4%, a viability, T/C [20] of 66.7% and a viability, T/C [21] of 59.3%. It also gave a viability, T/C [22] of 52.1%, a viability, T/C [23] of 43.6% and a viability, T/C [24] of 52.5%. It also gave a viability, T/C [25] of 65.3%, a viability, T/C [26] of 65.1% and a viability, T/C [27] of 58.3%. It also gave a viability, T/C [28] of 50%, a viability, T/C [29] of 44.8% and a viability, T/C [30] of 53.8%. For the same compound, the viability, T/C [31] was 64.5%, the viability, T/C [32] was 69.2% and the viability, T/C [33] was 58.8%. The viability, T/C [34] was 42.2%, the viability, T/C [35] was 39.8% and the viability, T/C [36] was 50.4%.

Compound `O=C(c1cc(Cc2n[nH]c(=O)c3ccccc23)ccc1F)N1CCN(C(=O)C2CC2)CC1` + CNC(=O)c1ccc(Nc2nc(OC3CCCC3)c3c(-c4ccc5nc(C)oc5c4)c[nH]c3n2)c(OC)c1 has an IC50 (second compound 0.0316 µM) greater than 10 µM, an IC50 (second compound 0.1 µM) greater than 10 µM and an IC50 (second compound 0.316 µM) greater than 10 µM. For the same compound, the IC50 (second compound 1 µM) was greater than 10 µM, the IC50 (second compound 3.16 µM) was greater than 10 µM and the IC50 (second compound 10 µM) was greater than 10 µM. It also gave a viability, T/C [1] of 103%, a viability, T/C [2] of 104% and a viability, T/C [3] of 112%. It also gave a viability, T/C [4] of 110%, a viability, T/C [5] of 90.6% and a viability, T/C [6] of 90.2%. It also gave a viability, T/C [7] of 111%, a viability, T/C [8] of 110% and a viability, T/C [9] of 108%. It also gave a viability, T/C [10] of 110%, a viability, T/C [11] of 91.9% and a viability, T/C [12] of 72%. For the same compound, the viability, T/C [13] was 85.2%, the viability, T/C [14] was 84.7% and the viability, T/C [15] was 77.2%. It also gave a viability, T/C [16] of 71.2%, a viability, T/C [17] of 76.1% and a viability, T/C [18] of 60.6%. The viability, T/C [19] was 71.3%, the viability, T/C [20] was 63.9% and the viability, T/C [21] was 64%. For the same compound, the viability, T/C [22] was 52.1%, the viability, T/C [23] was 71.3% and the viability, T/C [24] was 65.7%. It also gave a viability, T/C [25] of 68%, a viability, T/C [26] of 85.8% and a viability, T/C [27] of 68.1%. The viability, T/C [28] was 66.9%, the viability, T/C [29] was 57.8% and the viability, T/C [30] was 59.2%. The viability, T/C [31] was 66.1%, the viability, T/C [32] was 75.8% and the viability, T/C [33] was 58.3%. For the same compound, the viability, T/C [34] was 62.1%, the viability, T/C [35] was 62.4% and the viability, T/C [36] was 51.8%.

— PubChem BioAssay AID2060603 (Molecular Pharmacology Branch, DTP, NCI, 2025)
